The source of these data is paper PMC9022229, “Induction of Paraptosis by Cyclometalated Iridium Complex-Peptide Hybrids and CGP37157 via a Mitochondrial Ca^2+ Overload Triggered by Membrane Fusion between Mitochondria and the Endoplasmic Reticulum” (Biochemistry, 2022).

Data set [1] concerns Jurkat cells. The note with it: for Effect of Ca2+ channel inhibitor on cell death induced by 4 / Effect of Ca2+ channel inhibitor on cell death induced by celastrol: inhibitor 1 h (2-APB 50 μM, RuRed 10 μM, ER-000444793 10 μM); for Effect of Ca2+ channel inhibitor on cell death induced by 4: then 4 5 μM 3 h, microscopy and MTT; for Effect of Ca2+ channel inhibitor on cell death induced by celastrol: then celastrol 1 μM 12 h; for Effect of Ca2+ channel inhibitor on cell death induced by celastrol / Effect of PCD inhibitor on cell death induced by CGP37157 / Effect of GTPase inhibitor on cytotoxicity by 4 / Effect of GTPase inhibitor on cytotoxicity by CGP37157: MTT; for Effect of PCD inhibitor on cell death induced by CGP37157: Z-VAD-fmk 30 μM, Nec-1 30 μM, 3-MA 5 mM, CGP37157 100 µM, 12 h, three independent experiments; for Effect of GTPase inhibitor on cytotoxicity by 4 / Effect of GTPase inhibitor on cytotoxicity by CGP37157: inhibitor 1 h (dynasore, Mdivi-1 10–30 μM, CID1067700 1–10 μM); for Effect of GTPase inhibitor on cytotoxicity by 4: then 4 5 μM 1 or 3 h; for Effect of GTPase inhibitor on cytotoxicity by CGP37157: then CGP37157 100 μM 12 h.

A further data set concerns mitofusin 1 (MFN1). Kind of data set: Western blot analysis of MFN1 in Jurkat cells. It is filed as cell-based. The following applies: for MFN1 band intensity relative to absence of compound: Figure S8C, 24 h. The procedure: (§1) In a 1.5 mL Eppendorf tube, Jurkat cells (1.0 × 10^6 cells) were incubated in the presence of 4 ([…]), CGP37157 (100 μM for 0–24 h or 0–100 μM for 12 h), and celastrol (0–10 μM for 24 h or 1 μM for 0–24 h) at 37 °C under 5% CO2. After the cells had been washed twice with PBS, the proteins were extracted by using RIPA buffer (Nacalai Tesque) and quantified using a Pierce BCA Protein Assay Kit (Thermo Scientific). Proteins (7.5 μg/well) for MFNs and DRP1 and proteins (5.0 μg/well) for GAPDH were used for sodium dodecyl sulfate–polyacrylamide gel electrophoresis (SDS–PAGE) (7.5% for MFNs and DRP1 and 10% for GAPDH) (Bio-Rad). After SDS–PAGE, the proteins were transferred to a polyvinylidene fluoride membrane (Merck Millipore) by using a semi dry blotter (Bio-Rad). The membrane was blocked with Blocking One solution (Nacalai Tesque) for 30 min at room temperature. After being blocked, the membrane was washed three times with 1× TBST and treated with primary antibodies overnight (at a dilution of 1/1000 for MFNs and DRP1 or 1/2000 for GAPDH) in a signal enhancer HIKARI-solution A (Nacalai Tesque). The membrane was washed three times with 1× TBST and treated with the anti-mouse or anti-rabbit IgG HRP-conjugated secondary antibody (at a dilution of 1/4000 for MFNs and DRP1 or 1/10000 for GAPDH) in 1× TBST for 60 min at room temperature. The protein signal was spotted with a Chemi-Lumi One Ultra solution (Nacalai Tesque) using the ChemiDoc MP system (Bio-Rad). […]
On the technique in general: A western blot detects proteins with antibodies after separation by electrophoresis.

Data set [2] deals with MFN1- and/or MFN2-KD Jurkat cells. Kind of data set: MTT assay of MFN1- and/or MFN2-KD Jurkat cells. The class given is cell-based. The following applies: siRNA 10 nM, celastrol 1 µM, 12 h, three independent experiments. The method, then: The roles of MFNs in the cell death induced by 4 and CGP37157 were examined by using small interfering RNA (siRNA) for MFN1 and MFN2 to knock down (KD) these proteins. […] The cytotoxicity of 4 and CGP37157 against MFN1- and/or MFN2-KD Jurkat cells was evaluated by MTT assays. […] The effect of a negative control siRNA (NCsiRNA) on the expression levels of MFNs and the cell viability of Jurkat cells was negligible, implying that MFNs are […] to the paraptosis induced by 4 and CGP37157. It should be noted that the treatment with siRNA at 5 nM for 72 h was toxic against Jurkat cells in the presence of 4 and CGP37157, although the efficiency of knockdown of these proteins by siRNA could be improved by increasing the incubation time, as shown in Figure S11.
To a solution of transfection reagent (INTERFERin, 5 μL) in OPTI-MEM (0.3 mL) in a 1.5 mL Eppendorf tube was added siRNA (10 μM, 1 or 2 μL) in H2O, and the resulting solution was allowed to stand for 15 min at room temperature. The resulting solution was then added to Jurkat cells (2.0 × 10^5 cells/mL, 1.5 mL) in 10% FBS/RPMI 1640 medium that had been seeded on a 12-well plate and incubated overnight at 37 °C under 5% CO2 (the final concentration of siRNA was 5 or 10 nM), and the resulting solution was incubated for 48 or 72 h at 37 °C under 5% CO2. The cells were collected by centrifugation (2000 rpm, 3 min, 4 °C), and the expression levels of MFNs were evaluated by Western blot analysis as described above. The cytotoxicity of 4 (3 or 5 μM), CGP37157 (50 or 100 μM), and celastrol (1 μM) against MFNs-KD Jurkat cells was evaluated by MTT assays as described above.
For orientation: Formazan colour is commonly taken as a measure of viable cells.

Data set [3] deals with Jurkat cells. Kind of data set: Mitochondria-ER membrane fusion, co-staining with MitoTracker Green and ER-Tracker Red. The note with it: celastrol 1 μM, 12 h. It is filed as cell-based.
Method: To verify this hypothesis, mitochondria and the ER were stained with both MitoTracker Green and ER-Tracker Red in the presence of 4, CGP37157, and celastrol (Figure 8). Jurkat cells were stained with MitoTracker Green (0.5 μM) and ER-Tracker Red (1 μM) and then treated with 4 (5 μM) for 10–30 min (time-dependent microscopic images are presented in Figure S5). […] With regard to CGP37157 and celastrol, Jurkat cells were stained with MitoTracker Green (0.5 μM) and ER-Tracker Red (1 μM) and then treated with CGP37157 (100 μM) and celastrol (1 μM) for 1–24 h (Figure 8 and Figure S5).
In a 1.5 mL Eppendorf tube, Jurkat cells (2.0 × 10^5 cells) were stained with MitoTracker Green (0.5 μM) for 1 h at 37 °C under 5% CO2 and then ER-Tracker Red (1 μM) for 1 h at 37 °C under 5% CO2 in 10% FBS/RPMI 1640 medium (100 μL). After being washed with PBS, the cells were treated with 4 (5 μM) in 10% FBS/RPMI 1640 medium (100 μL) for 0–30 min at 37 °C under 5% CO2. For CGP37157 and celastrol, Jurkat cells were treated with CGP37157 (100 μM) or celastrol (1 μM) in 10% FBS/RPMI 1640 medium (100 μL) for 0–24 h, after which the cells were stained with MitoTracker Green (0.5 μM) for 1 h at 37 °C under 5% CO2 and then ER-Tracker Red (1 μM) for 1 h at 37 °C under 5% CO2 in PBS. The cells were washed with PBS and observed by confocal microscopy (Fluoview, FV-1000, Olympus) using a Greiner CELLview dish (35 mm × 10 mm). Excitation at 473 nm and emission from 485 to 545 nm were used for MitoTracker Green. Excitation at 559 nm and emission from 570 to 620 nm were used for ER-Tracker Red. The exposure time was 20 μs/pixel.
The next data set has as its system mitofusin 2 (MFN2). Kind of data set: Western blot analysis of MFN2 in Jurkat cells. It is filed as cell-based. The following applies: for MFN2 band intensity relative to absence of compound: Figure S8C, 24 h. The method, then:
as §1

Data set [4] has as its system dynamin-related protein 1 (DRP1). Briefly: Western blot analysis of DRP1 in Jurkat cells. The class given is cell-based. The following applies: for DRP1 band intensity relative to absence of compound: Figure S8C, 24 h. The method, then:
In a 1.5 mL Eppendorf tube, Jurkat cells (1.0 × 10^6 cells) were incubated in the presence of 4 ([…]), CGP37157 (100 μM for 0–24 h or 0–100 μM for 12 h), and celastrol (0–10 μM for 24 h or 1 μM for 0–24 h) at 37 °C under 5% CO2. After the cells had been washed twice with PBS, the proteins were extracted by using RIPA buffer (Nacalai Tesque) and quantified using a Pierce BCA Protein Assay Kit (Thermo Scientific). Proteins (7.5 μg/well) for MFNs and DRP1 and proteins (5.0 μg/well) for GAPDH were used for sodium dodecyl sulfate–polyacrylamide gel electrophoresis (SDS–PAGE) (7.5% for MFNs and DRP1 and 10% for GAPDH) (Bio-Rad). After SDS–PAGE, the proteins were transferred to a polyvinylidene fluoride membrane (Merck Millipore) by using a semi dry blotter (Bio-Rad). The membrane was blocked with Blocking One solution (Nacalai Tesque) for 30 min at room temperature. After being blocked, the membrane was washed three times with 1× TBST and treated with primary antibodies overnight (at a dilution of 1/1000 for MFNs and DRP1 or 1/2000 for GAPDH) in a signal enhancer HIKARI-solution A (Nacalai Tesque). The membrane was washed three times with 1× TBST and treated with the anti-mouse or anti-rabbit IgG HRP-conjugated secondary antibody (at a dilution of 1/4000 for MFNs and DRP1 or 1/10000 for GAPDH) in 1× TBST for 60 min at room temperature. The protein signal was spotted with a Chemi-Lumi One Ultra solution (Nacalai Tesque) using the ChemiDoc MP system (Bio-Rad).

Data set [5] deals with Jurkat cells. Kind of data set: TEM analysis of cytoplasmic vacuolization. The note with it: celastrol 1 μM, 24 h. The class given is cell-based. The procedure: The morphological changes in Jurkat cells induced by CGP37157 (Figure 3B) were similar to those induced by 4 (Figure 1B) and confirmed in detail by TEM (transmission electron microscopy). Jurkat cells were treated with CGP37157 (100 μM) for 12 h, prefixed with glutaraldehyde and postfixed with osmium tetroxide (OsO4), and included in Poly 812 resin. The resulting samples were sliced and then observed by TEM. […] Similar TEM images were reported with respect to paraptosis-inducing natural compounds by some research groups: (i) paraptosis in MDA-MB 435S cells,[17] HeLa cells,[18] and Jurkat cells (Figure 4d and in our previous publications)[56]−[58] induced by celastrol, (ii) paraptosis in HeLa cells induced by 8-p-hydroxybenzoyl tovarol,[23] and (iii) paraptosis in A2780 cells and SKOV-3 cells induced by morusin.[22] Therefore, we believe that Jurkat cells undergo vacuolization in the paraptotic processes induced by 4 and CGP37157, as well as celastrol.
In a 1.5 mL Eppendorf tube, Jurkat cells (3.0 × 10^6 cells) were incubated with 4 (5 μM for 3 h), CGP37157 (100 μM for 12 h), and celastrol (1 μM for 24 h) in 10% FBS/RPMI 1640 medium at 37 °C under 5% CO2. After centrifugation (2000 rpm, 3 min, 4 °C), the cells were washed twice with PBS, prefixed with glutaraldehyde (2.5%) at 4 °C for 40 min, and then washed twice with PBS. Osmium tetroxide (1%) was used for postfixation, and the solution was incubated at 4 °C for 30 min. The cells were washed with PBS, included in an agarose gel, and dehydrated by using 50–100% and anhydrous EtOH. The cells were embedded into Poly 812 resin (Nisshin EM Co. Ltd.) at 60 °C for 3 days. The resin was sliced with a glass knife (150 nm thickness) on an ultramicrotome (EM UC6, Leica), and the samples were stained with EM stainer (Nisshin EM Co. Ltd.) and observed on TEM instrument (H-7650, Hitachi) with electron irradiation at 100 kV.

Setting [6] is: celastrol 1 μM 0–24 h or 0–10 μM 24 h.

Turning to `NCCOB(c1ccccc1)c1ccccc1` [2-APB, 2-Aminoethoxydiphenyl borate], in the data set on Jurkat cells [1], the “Effect of Ca2+ channel inhibitor on cell death induced by 4” value (“Effect of Ca2+ channel inhibitor … by 4” below) is listed as “negligible inhibitory effects” and the “Effect of Ca2+ channel inhibitor on cell death induced by celastrol” value is “negligible inhibitory effects”.

With `Cn1cnc(N)c2ncnc1-2` [3-methyladenine], the “Effect of PCD inhibitor on cell death induced by CGP37157” value (shortened to “Effect of PCD inhibitor”) with Jurkat cells [1] is “negligible inhibition”.

Turning to `CC1(C)Cc2c(sc(NC(=S)NC(=O)c3ccccc3)c2C(=O)O)CO1` [CID1067700], in the data set on Jurkat cells [1], the “Effect of GTPase inhibitor on cytotoxicity by 4” value is “negligible effect” and the “Effect of GTPase inhibitor on cytotoxicity by CGP37157” value is “negligible effect”.

With `O=C(Nc1ccccc1Cc1ccccc1)c1cc(=O)[nH]c2ccccc12` [ER-000444793], in the data set with Jurkat cells [1], the “Effect of Ca2+ channel inhibitor … by 4” value was “negligible inhibitory effects” and the “Effect of Ca2+ channel inhibitor on cell death induced by celastrol” value is listed as “negligible inhibitory effects”.

In the case of `COc1cc(-n2c(=S)[nH]c3ccccc3c2=O)c(Cl)cc1Cl` [Mdivi-1], in the data set with Jurkat cells [1], the “Effect of GTPase inhibitor on cytotoxicity by 4” value is “negligible effect” and the “Effect of GTPase inhibitor on cytotoxicity by CGP37157” value is recorded as “negligible effect”.

Take `N.N.N.N.N.N.N.N.N.N.N.N.N.N.[Cl-].[Cl-].[Cl-].[Cl-].[Cl-].[Cl-].[O-2].[O-2].[Ru+3].[Ru+3].[Ru+4]` [RuRed, ruthenium red]: in the data set with Jurkat cells [1], the “Effect of Ca2+ channel inhibitor … by 4” value is on record as “negligible inhibitory effects” and the “Effect of Ca2+ channel inhibitor on cell death induced by celastrol” value is on record as “negligible inhibitory effects”.

As for `CC1=C(O)C(=O)C=C2C1=CC=C1[C@@]2(C)CC[C@@]2(C)[C@@H]3C[C@](C)(C(=O)O)CC[C@]3(C)CC[C@]12C` [celastrol], the “MFN1 band intensity relative to absence of compound” value was 0.56 in the data set on mitofusin 1 (MFN1) (celastrol 1 µM); 0.51 with mitofusin 1 (MFN1) (celastrol 2 µM); 0.45 with mitofusin 1 (MFN1) (celastrol 5 µM); 0.43 with mitofusin 1 (MFN1) (celastrol 8 µM); 0.37 with mitofusin 1 (MFN1) (celastrol 10 µM). Besides, the “Expression level of MFN1 (Figure 11C, S8C)” value with mitofusin 1 (MFN1) (setting [6]) is listed as “decreased”. The “Effect of knockdown of MFNs on cell death induced by the compound” value in data set [2] is reported as “negligible effect”. Also, the “Overlap of MitoTracker Green and ER-Tracker Red emission (mitochondria-ER membrane fusion)” value in the data set with Jurkat cells [3] was “negligible”. The “MFN2 band intensity relative to absence of compound” value in the data set on mitofusin 2 (MFN2) (celastrol 1 µM) is 0.29; with mitofusin 2 (MFN2) (celastrol 2 µM) it was 0.21; in the data set with mitofusin 2 (MFN2) (celastrol 5 µM) it was 0.21; in the data set on mitofusin 2 (MFN2) (celastrol 8 µM), 0.22; with mitofusin 2 (MFN2) (celastrol 10 µM), 0.15. Moreover, the “Expression level of MFN2 (Figure 11C, S8C)” value in the data set on mitofusin 2 (MFN2) (setting [6]) is reported as “decreased”. Further, the “DRP1 band intensity relative to absence of compound” value in data set [4] (celastrol 1 µM) was 0.92; in data set [4] (celastrol 2 µM), 0.81; in data set [4] (celastrol 5 µM) it was 0.44; in data set [4] (celastrol 8 µM), 0.20; in data set [4] (celastrol 10 µM) it was 0.19. The “Expression level of DRP1 (Figure 11C, S8C)” value in data set [4] (setting [6]) is “decreased”. The “Morphological change by TEM” value with Jurkat cells [5] is recorded as “cytoplasmic vacuolization”.

Turning to `CN1C(=O)C(Cc2c[nH]c3ccccc23)NC1=S` (stereo not shown) [necrostatin-1], the “Effect of PCD inhibitor” value in the data set on Jurkat cells [1] is “negligible inhibition”.

Take “Benzyloxycarbonyl-Val-Ala-Asp(OMe) fluoromethylketone [Z-VAD-fmk]”: the “Effect of PCD inhibitor” value in the data set with Jurkat cells [1] is “weakly inhibited”.
